Drawing on patent US8536136B2, “Inhibitors of serine proteases, particularly HCV NS3-NS4A protease” (Vertex Pharmaceuticals Incorporated, priority 2004, dated 2013), this text covers Ki for eight compounds.

One may read the Ki as the dissociation constant of the complex between target and ligand, obtained from inhibition or displacement. A low value points to tighter binding.

Each structure is given as a SMILES string.

The target of the experiment is HCV NS3-NS4A protease (tNS3 with KK4A) (Hepatitis C virus genotype 1a, UniProt P27958). Nature of the experiment: HCV Ki Assay (HPLC microbore separation of 5AB substrate and products). The class given is biochemical. As to conditions: 25 nM tNS3, 25 μM KK4A, 25 μM 5AB substrate, 20 min at 30 C. Here is the method: HPLC Microbore Method for Separation of 5AB Substrate and Products
Sequence of HCV NS3-NS4A protease (tNS3 with KK4A) (P27958 1027-1208): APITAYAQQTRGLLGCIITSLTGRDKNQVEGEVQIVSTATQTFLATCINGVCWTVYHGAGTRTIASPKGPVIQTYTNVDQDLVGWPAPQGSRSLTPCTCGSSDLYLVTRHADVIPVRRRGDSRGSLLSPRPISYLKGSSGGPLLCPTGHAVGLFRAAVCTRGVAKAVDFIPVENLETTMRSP
Sequence of HCV NS3-NS4A protease (tNS3 with KK4A) (P27958 1658-1711): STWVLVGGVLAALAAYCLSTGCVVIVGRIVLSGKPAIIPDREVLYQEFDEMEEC
NH2-Glu-Asp-Val-Val-(alpha)Abu-Cys-Ser-Met-Ser-Tyr-COOH
A stock solution of 20 mM 5AB (or concentration of your choice) was made in DMSO w/0.2M DTT. This was stored in aliquots at −20 C.
Buffer: 50 mM HEPES, pH 7.8; 20% glycerol; 100 mM NaCl
Total assay volume was 100 μL
The buffer, KK4A, DTT, and tNS3 were combined; distributed 78 μL each into wells of 96 well plate. This was incubated at 30 C for ˜5-10 min.
2.5 μL of appropriate concentration of test compound was dissolved in DMSO (DMSO only for control) and added to each well. This was incubated at room temperature for 15 min.
Initiated reaction by addition of 20 μL of 250 μM 5AB substrate (25 μM concentration is equivalent or slightly lower than the Km for 5AB).
Incubated for 20 min at 30 C.
Terminated reaction by addition of 25 μL of 10% TFA
Transferred 120 μL aliquots to HPLC vials
Separated SMSY product from substrate and KK4A by the following method:
Microbore Separation Method:
Stop time: 17 min Post-run time: 10 min.
`CCC[C@H](NC(=O)[C@@H]1C[C@@H]2CCCC[C@@H]2N1C(=O)[C@@H](NC(=O)[C@@H](NC(=O)c1cnccn1)C1CCCCC1)C(C)(C)C)C(=O)C(=O)NN1CCOCC1` [Compound 7] had a Ki of over 3000 nM.

In turn, `CCC[C@H](NC(=O)[C@@H]1C[C@@H]2CCCC[C@@H]2N1C(=O)[C@@H](NC(=O)[C@@H](NC(=O)c1cnccn1)C1CCCCC1)C(C)(C)C)C(=O)C(=O)NN(C)c1ccccc1` [Compound 6, 1-(2-{2-Cyclohexyl-2-[(pyrazine-2-carbonyl)-amino]-acetylamino}-3,3-dimethyl-butyryl)-octahydro-indole-2-carboxylic acid [1-(N′-methyl-N′-phenyl-hydrazinooxalyl)-butyl]-amide] displayed a Ki of under 1500 nM. Next, `CCC[C@H](NC(=O)[C@@H]1C[C@@H]2CCCC[C@@H]2N1C(=O)[C@@H](NC(=O)[C@@H](NC(=O)c1cnccn1)C1CCCCC1)C(C)(C)C)C(=O)C(=O)NOCc1ccccc1` [Compound 3, 1-(2-{2-Cyclohexyl-2-[(pyrazine-2-carbonyl)-amino]-acetylamino}-3,3-dimethyl-butyryl)-octahydro-indole-2-carboxylic acid (1-benzyloxyaminooxalyl-butyl)-amide]: 1500 to 3000 nM; `C=CCONC(=O)C(=O)[C@H](CCC)NC(=O)[C@@H]1C[C@@H]2CCCC[C@@H]2N1C(=O)[C@@H](NC(=O)[C@@H](NC(=O)c1cnccn1)C1CCCCC1)C(C)(C)C` [Compound 4, 1-(2-{2-Cyclohexyl-2-[(pyrazine-2-carbonyl)-amino]-acetylamino}-3,3-dimethyl-butyryl)-octahydro-indole-2-carboxylic acid (1-allyloxyaminooxalyl-butyl)-amide]: over 3000 nM; `CCC[C@H](NC(=O)[C@@H]1C[C@@H]2CCCC[C@@H]2N1C(=O)[C@@H](NC(=O)[C@@H](NC(=O)c1cnccn1)C1CCCCC1)C(C)(C)C)C(=O)C(=O)NOC(C)(C)C` [Compound 2, 1-(2-{2-Cyclohexyl-2-[(pyrazine-2-carbonyl)-amino]-acetylamino}-3,3-dimethyl-butyryl)-octahydro-indole-2-carboxylic acid (1-tert-butoxyaminooxalyl-butyl)-amide]: under 1500 nM. The same measure for `CCC[C@H](NC(=O)[C@@H]1C[C@@H]2CCCC[C@@H]2N1C(=O)[C@@H](NC(=O)[C@@H](NC(=O)c1cnccn1)C1CCCCC1)C(C)(C)C)C(=O)C(=O)NN(Cc1ccccc1)Cc1ccccc1` [Compound 8]: over 3000 nM. The same measure for `CCC[C@H](NC(=O)[C@@H]1C[C@@H]2CCCC[C@@H]2N1C(=O)[C@@H](NC(=O)[C@@H](NC(=O)c1cnccn1)C1CCCCC1)C(C)(C)C)C(=O)C(=O)NOc1ccccc1` [Compound 5, 1-(2-{2-Cyclohexyl-2-[(pyrazine-2-carbonyl)-amino]-acetylamino}-3,3-dimethyl-butyryl)-octahydro-indole-2-carboxylic acid (1-phenoxyaminooxalyl-butyl)-amide]: 1500 to 3000 nM; for `CCC[C@H](NC(=O)[C@@H]1C[C@@H]2CCCC[C@@H]2N1C(=O)[C@@H](NC(=O)[C@@H](NC(=O)c1cnccn1)C1CCCCC1)C(C)(C)C)C(=O)C(=O)NOCC(C)C` [Compound 1, 1-(2-{2-Cyclohexyl-2-[(pyrazine-2-carbonyl)-amino]-acetylamino}-3,3-dimethyl-butyryl)-octahydro-indole-2-carboxylic acid (1-isobutoxyaminooxalyl-butyl)-amide]: under 1500 nM.
